In patent US10072122B2, “Carbonate polymer containing a functional group of disulfide five-membered ring in the side chain and application thereof” (BrightGene Bio-Medical Technology Co., Ltd, priority 2014, dated 2018):
Where a name gives a salt, the structure may show the parent alone.

How the values were obtained:
[1] = blood circulation of cross-linked nanoparticle loaded drug in mice; assay type: in vivo, C57BL/6 mice; details: i.v. 10 mg/kg DOX
Experimental: (§1) Mice were intravenously injected with nanoparticle loaded drug and free drug, and DOX was 10 mg/kg. 10 μL of blood was taken at different time points of 0, 0.25, 0.5, 1, 2, 4, 8, 12 and 24 h, and the weight of blood was calculated with the method of balance. The blood samples upon withdrawing were immediately dissolved in 100 μL 1% triton and 500 μL of extraction solution DMF (containing 1M HCl and 20 mM DTT). Taken the supernatant by centrifugation (20000 rpm, 20 min). The DOX level in the supernatant of each time was determined by fluorometry.

B16 melanoma tumor [2] = assay: biodistribution in mice bearing melanoma tumors; assay type: in vivo, C57BL/6 mice; details: i.v. 10 mg/kg DOX
Experimental: (§2) Mice were intravenously injected with nanoparticle loaded drug and DOX (DOX was 10 mg/kg) when the tumor volume reached 100-200 mm^3 about two weeks. The mice were sacrificed at 6, 12 or 24 h and the tumor and organs of heart, liver, spleen, lung and kidney were collected, wet weighed, then 500 μL 1% triton was added, homogenized and extracted by 900 μL DMF solution (containing 1 mM HCl and 20 mM DTT). Taken the supernatant by centrifugation (20000 rpm, 20 min). The DOX level at each time was determined by fluorescence measurement.

B16 melanoma tumor [3] = assay: therapeutic efficacy in mice bearing melanoma tumors; assay type: in vivo, C57BL/6 mice; details: DOX 10 mg/kg
[4] = blood circulation of targeting cross-linked vesicle loaded drug in mice; assay type: in vivo, Balb/C mice; details: i.v. 10 mg/kg DOX
Experimental: as §1, with “The vesicle was formed with different ratio of cRGD-PEG6k-P(CDC4.6k-co-TMC18.6k) and PEG5k-P(CDC4.9k-co-TMC19k). […] Mice” for “Mice”, “targeting vesicle” for “nanoparticle”, “drug cRGD20/CLPs, vesicle loaded drug CLPs, targeting decross-linked vesicle cRGD20/PEG-PTMC” for “drug”, “DOX.HCl as control (the” for “free drug, and”, “mg/kg).” for “mg/kg.”

[5] = biodistribution in mice bearing human glioma cells; assay type: in vivo; details: Balb/C, mouse, tumor, iv, i.v. 10 mg/kg DOX, read-out: accumulation of DOX in tumor
Experimental: as §2, with “The” for “Mice were intravenously injected with nanoparticle loaded drug and DOX (DOX was 10 mg/kg) when the tumor volume reached 100-200 mm^3 about two weeks. The”, “4” for “6, 12 or 24”

B16 melanoma tumor [6] = assay: therapeutic efficacy of iRGD targeting cross-linked vesicles in mice bearing melanoma tumors; assay type: in vivo, C57BL/6 mice
Experimental: The tumor size was measured every day using calipers from 0 to 20 day.

U87MG human glioma cells = assay: therapeutic efficacy in mice bearing human glioma cells
Experimental: Aged 4 to 6 weeks old, weight 18 to 20 g Balb/C mice (Shanghai Institutes for Biological Sciences Laboratory Animal Center) were collected. They were evenly divided into groups after weighting. U87MG human glioma cells of 5×10^6 cells were generated by subcutaneous injection into the hind flank of the mice. Mice were intravenously injected with cRGD20/CLPs, CLPs, targeting decross-linked nanoparticle vesicle (cRGD20/PEG-PTMC), DOX.HCl and PBSat 0, 4, 8.12 day when the tumor volume reached 30 to 50 mm^3 about two weeks, where the DOX proportion was 10 mg/kg. The tumor size was measured every two days using calipers from 0 to 18 day. The tumor size was calculated by V=(L*W*H)/2 (L was length of tumor, W was width of tumor, H was thickness of tumor). Continue to observe the survival of mice until 45 day.

SMILES	half-lives of eliminate in mice ([1]; C57BL/6 mice) [h]	DOX in blood ([1]; at 2 h)	accumulation in tumor (B16 melanoma tumor [2]; 6 h) [ID %/g]	accumulation in tumor (B16 melanoma tumor [2]; 12 h) [ID %/g]	accumulation in tumor (B16 melanoma tumor [2]; 24 h) [ID %/g]	tumor growth (B16 melanoma tumor [3])	survival rate (B16 melanoma tumor [3]; 10 days)	body weight reduced (B16 melanoma tumor [3]; at 7 day) [%]	DOX in blood ([4]; at 2 h)	half-life ([4]; mouse, whole blood, iv, Balb/C mice, read-out: half-lives of eliminate in mice (converted)) [min]	tissue uptake at 4 h [5] [%ID/g]	tumor growth (B16 melanoma tumor [6]; 10 mg/kg DOX.HCl at 0, 3, 6, 9, 12 day, 20 day)	declining of body weight (B16 melanoma tumor [6]; 10 mg/kg, at 8 day) [%]	survival rate (B16 melanoma tumor [6]; 10 days)	tumor growth (U87MG human glioma cells; 10 mg/kg DOX at 0, 4, 8, 12 day, 18 day)	declining of body weight (U87MG human glioma cells; 10 mg/kg, at 12 day) [%]	survival rate (U87MG human glioma cells; 13 days)
COc1cccc2c1C(=O)c1c(O)c3c(c(O)c1C2=O)C[C@@](O)(C(=O)CO)C[C@@H]3O[C@H]1C[C@H](N)[C@H](O)[C@H](C)O1 [DOX, Doxorubicin]	0.21	can not detection	1.05	0.52	0.29	can inhibited tumor growth	0	23	–	–	–	–	–	–	–	–	–
COc1cccc2c1C(=O)c1c(O)c3c(c(O)c1C2=O)C[C@@](O)(C(=O)CO)C[C@@H]3O[C@H]1C[C@H](N)[C@H](O)[C@H](C)O1 [DOX.HCl, doxorubicin hydrochloride]	–	–	–	–	–	–	–	–	can not detection	16.2	0.82	can inhibit tumor growth	20	0	can inhibited tumor growth	21	0
